In general, Ki refers to the dissociation constant of the complex between target and ligand, obtained from inhibition or displacement. One may read the Kd as the free concentration of one partner at which half of the binding sites on the other are occupied at equilibrium, for simple one-to-one binding. Low values mean a tighter complex, high ones a looser complex.

The target of test [1] is T1, GdpP-C (GdpP313-656) (Staphylococcus aureus, UniProt Q2G2T6).
T1 sequence (Q2G2T6 313-655): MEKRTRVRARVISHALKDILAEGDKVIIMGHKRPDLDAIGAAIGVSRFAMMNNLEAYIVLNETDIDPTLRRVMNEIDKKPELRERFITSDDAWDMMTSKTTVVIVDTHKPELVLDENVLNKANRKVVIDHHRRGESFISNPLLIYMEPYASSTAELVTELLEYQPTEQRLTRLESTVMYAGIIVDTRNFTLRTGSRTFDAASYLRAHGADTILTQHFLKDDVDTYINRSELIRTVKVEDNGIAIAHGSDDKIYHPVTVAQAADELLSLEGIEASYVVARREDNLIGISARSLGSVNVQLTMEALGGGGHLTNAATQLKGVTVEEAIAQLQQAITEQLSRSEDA
Description: phosphomolybdate blue Pi release, Michaelis-Menten fit. It counts as biochemical.

Test [2] deals with T1, GdpP-C (GdpP313-656). Kind of test: isothermal titration calorimetry. Type of test: binding.

At GdpP-C (GdpP313-656) [1], `CC(=O)CCCCn1c(=O)c2c(ncn2C)n(C)c1=O` [pentoxifylline] showed a Ki of 68.3 µM. Moreover, the affinity on GdpP-C (GdpP313-656) [2], expressed as Kd, was 33.2 µM.

Values taken from article doi:10.1101/2025.09.09.675175v1 (biorxiv, 2025).
